# Test results from US20110321198A1, “POLYPEPTIDE HAVING FUNCTION FOR DELAYING ANTHESIS OR SUPPRESSING GROWTH, POLYNUCLEOTIDE ENCODING THE SAME, AND USE THEREOF” (priority 2009, published 2011).
# “Also recorded” adds a separate entry of the source.
# Columns and labels:
# [1] = tested on: Arabidopsis thaliana wild-type (Col); test: Germination efficiency under paclobutrazol treatment, wild-type; type: in vivo; details: FIG. 10
# From the text: (§1) It is generally known that GA is involved in germination as well as hypocotyl growth as shown in Example 5. Hypocotyl growth or adult heights are associated with cell elongation. Typically, GA, auxin and brassinosteroid […] are involved in cell elongation while plant hormones such as GA and ABA are responsible for germination. As for the response to GA, its molecular mechanisms are different for different phenomena. Thus, in order to support the fact that the delayed flowering and/or dwarfism phenotype is attributed to the deficient response of sil1-1D to GA, the wild-type (Col) and sil1-1D were treated with paclobutrazol (PAC), which inhibits the biosynthesis of GA, and their germination efficiencies were compared. […] Generally, when GA biosynthesis was inhibited by PAC, germination efficiency was lowered, with a lowered response to GA.
# sil1-1D mutant [2] = test: Germination efficiency under paclobutrazol treatment, sil1-1D mutant; type: in vivo, Arabidopsis thaliana; details: FIG. 10
# From the text: as §1
# [3] = tested on: Arabidopsis thaliana wild-type (Col); test: Hypocotyl length response to GA, wild-type; type: in vivo; details: various concentrations of GA, white light, FIG. 9
# Procedure: (§2) In most cases, these phenomena occur when the plant becomes low in GA response or GA biosynthesis level. Thus, the response of sil1-1D to GA was examined. In this regard, hypocotyl lengths of 15 plantlets were measured after they were grown in ½ Gamborg B5 media (Duchefa) containing 1% sucrose and various concentrations of GA under white light.
# sil1-1D mutant [4] = test: Hypocotyl length response to GA, sil1-1D mutant; type: in vivo, Arabidopsis thaliana; details: various concentrations of GA, white light, compared to wild-type, FIG. 9
# Procedure: as §2
molecule,measurement,setting,value
"CC(C)(C)[C@@H](O)[C@@H](Cc1ccc(Cl)cc1)n1cncn1 (racemic) [PAC, paclobutrazol]",germination,"[1]; wild-type (Col), 0.35 mg/L PAC",~100%
same,germination efficiency,"[1]; wild-type, increasing PAC concentration",decreased with increasing of PAC concentration
same,germination,sil1-1D mutant [2]; 0.35 mg/L PAC,about 50%
same,germination efficiency,sil1-1D mutant [2]; increasing PAC concentration,decreased with increasing of PAC concentration
gibberellin [GA],hypocotyl growth,[3],increased with increasing of GA concentration
same,hypocotyl growth,sil1-1D mutant [4],short hypocotyls in response to GA; also recorded: significantly reduced
